Results: publication PMC11520136, “Design, synthesis, and biological investigations of new pyrazole derivatives as VEGFR2/CDK-2 inhibitors targeting liver cancer” (BMC Chemistry, 2024)
“Also recorded” adds a separate entry of the source. Blank lines part the entries; values can stand above or below the compound they belong to.

What was measured:
THLE2 cells = assay: MTT cytotoxicity assay against THLE2; assay type: cell-based; settings: Homo sapiens, THLE-2, 48 h, normal liver cells, mean ± SD, n = 3
Experimental: (§1) The cell lines were supplemented with 10% fetal bovine serum (Sigma-Aldrich, MO, USA) and 1% penicillin–streptomycin. Compounds were added to the cells on the second day at doses of “0, 0.01, 0.1, 1, 10, and 100 μM”. Cell viability was assessed after 48 h using the MTT solution (Promega, USA).

HepG2 cells [1] = assay: MTT cytotoxicity assay against HepG2; assay type: cell-based; settings: mean ± SD, n = 3
Experimental: as §1

CDK-2 kinase = biological target: T1, CDK-2 kinase (Homo sapiens, UniProt P24941); assay: CDK-2 luminescence kinase assay kit; assay type: biochemical; settings: for IC50: average of three independent replicates
T1 construct: purchased Promega (so in the source) 79,599

VEGFR2 kinase = biological target: T2, VEGFR2 kinase (Homo sapiens, UniProt P35968); assay: VEGFR2 (KDR) kinase assay kit; assay type: biochemical; settings: for IC50: average of three independent replicates
T2 construct: purchased BPS Bioscience 40,325
T2 sequence (P35968 20-1356): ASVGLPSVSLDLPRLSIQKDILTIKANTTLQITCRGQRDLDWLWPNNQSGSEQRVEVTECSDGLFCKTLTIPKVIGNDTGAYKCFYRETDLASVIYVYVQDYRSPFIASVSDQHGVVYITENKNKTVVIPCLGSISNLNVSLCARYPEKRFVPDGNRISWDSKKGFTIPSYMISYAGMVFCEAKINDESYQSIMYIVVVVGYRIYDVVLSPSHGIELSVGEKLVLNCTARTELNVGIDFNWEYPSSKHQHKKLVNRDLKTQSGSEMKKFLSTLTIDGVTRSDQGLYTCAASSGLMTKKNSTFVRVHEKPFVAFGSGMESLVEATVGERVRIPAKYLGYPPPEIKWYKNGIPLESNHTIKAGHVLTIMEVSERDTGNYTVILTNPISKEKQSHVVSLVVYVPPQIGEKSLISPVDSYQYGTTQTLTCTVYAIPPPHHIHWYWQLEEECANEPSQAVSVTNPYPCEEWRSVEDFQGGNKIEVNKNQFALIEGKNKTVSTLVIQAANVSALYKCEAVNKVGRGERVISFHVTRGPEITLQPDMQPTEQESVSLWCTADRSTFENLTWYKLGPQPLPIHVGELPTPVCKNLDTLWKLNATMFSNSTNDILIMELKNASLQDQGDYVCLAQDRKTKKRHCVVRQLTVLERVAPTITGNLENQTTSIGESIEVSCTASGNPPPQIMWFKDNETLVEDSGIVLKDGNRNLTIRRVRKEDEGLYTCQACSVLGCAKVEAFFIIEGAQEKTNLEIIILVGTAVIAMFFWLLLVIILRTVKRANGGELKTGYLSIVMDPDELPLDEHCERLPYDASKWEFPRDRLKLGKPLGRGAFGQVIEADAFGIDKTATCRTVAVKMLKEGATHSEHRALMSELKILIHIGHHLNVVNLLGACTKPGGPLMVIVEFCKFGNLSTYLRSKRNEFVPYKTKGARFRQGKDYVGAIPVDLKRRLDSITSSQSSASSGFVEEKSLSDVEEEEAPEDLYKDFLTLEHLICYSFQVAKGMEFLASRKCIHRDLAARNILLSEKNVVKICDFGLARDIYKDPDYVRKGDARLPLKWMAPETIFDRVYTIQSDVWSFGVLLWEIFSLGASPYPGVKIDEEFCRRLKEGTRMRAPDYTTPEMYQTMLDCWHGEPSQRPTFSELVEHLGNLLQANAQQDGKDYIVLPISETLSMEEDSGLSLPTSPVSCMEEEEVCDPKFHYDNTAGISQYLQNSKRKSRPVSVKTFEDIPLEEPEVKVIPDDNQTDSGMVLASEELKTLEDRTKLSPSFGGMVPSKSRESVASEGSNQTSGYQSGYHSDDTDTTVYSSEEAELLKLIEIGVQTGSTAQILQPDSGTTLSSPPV

HepG2 cells [2] = assay: Annexin V/PI staining flow cytometry (apoptosis/necrosis); assay type: cell-based; parameters: Apoptosis Total / Apoptosis Early / Apoptosis Late: unit not given here; settings: for total apoptosis (overall apoptotic cell death): untreated control 0.95%; for Apoptosis Late: Cont.HepG2 0.23; for Apoptosis Early: Cont.HepG2 0.72; for Apoptosis Total: Cont.HepG2 2.47
Experimental: (§2) HepG2 cells (3–5 105 cells/well) were cultured onto 6-well culture plates and incubated overnight. […] The cells and medium supernatants were then washed with ice-cold PBS. After that, […] of annexin binding buffer solution was added to the cell suspension "25 mM CaCl2, 1.4 M NaCl, and 0.1 M Hepes/NaOH, pH 7.4″ and incubation with “Annexin V-FITC solution (1:100) and propidium iodide (PI)” at a concentration equals 10 µg/mL in the dark for 30 min. The Cytoflex FACS system was then used to acquire the stained cells. cytExpert was used for data analysis.

HepG2 cells [3] = assay: DNA content flow cytometry cell cycle analysis; assay type: cell-based; settings: HepG2, IC50 values, 48 h; for DNA content %G2/M: control 20.6; for DNA content %S: control 37.59; for DNA content %G0-G1: control 41.81
Experimental: as §2
Kit used : ab139418_Propidium Iodide Flow Cytometry Kit/BD

HepG2 liver cancer cells = test system: HepG2 liver cancer cells; parameters: method as in PMID 32559576, PMID 37234266, doi:10.1016/j.molstruc.2023.135765; settings: Fig. 1; read-out: IC50 against HepG2 liver cancer cells; cited from earlier work
[4] = HepG2, at the IC50 values, 48 h
[5] = HepG2, at the IC50 values, 48 h, untreated control 1.52%
[6] = supplement lab report, HepG2, Cont.HepG2 1.52

Compound: CC1=NN(C(c2ccccc2)N2CCOCC2)C(=O)C1N=Nc1ccccc1 (stereo not drawn) [Compound 3a, 5-Methyl-2-(morpholino(phenyl)methyl)-4-(phenyldiazenyl)-2,4-dihydro-3H-pyrazol-3-one]
IC50 (THLE2 cells): 41.2 ± 1.19 µM
IC50 (HepG2 cells [1]; Homo sapiens, HepG2, 48 h): 33.9 ± 1.89 µM

Compound: CC1=NN(C(c2ccccc2)N2CCOCC2)C(=O)C1N=Nc1ccccc1[N+](=O)[O-] (stereo not drawn) [Compound 3b, 5-Methyl-2-(morpholino(phenyl)methyl)-4-((2-nitrophenyl)diazenyl)-2,4-dihydro-3H-pyrazol-3-one]
IC50 (THLE2 cells): 47.2 ± 1.85 µM
IC50 (HepG2 cells [1]; Homo sapiens, HepG2, 48 h): 55.5 ± 3.1 µM

Compound: CC1=NN(C(c2ccccc2)N2CCOCC2)C(=O)C1N=Nc1ccc(Cl)cc1 (stereo not drawn) [Compound 3c, 4-((4-Chlorophenyl)diazenyl)-5-methyl-2-(morpholino(phenyl)methyl)-2,4-dihydro-3H-pyrazol-3-one]
IC50 (THLE2 cells): 34.5 ± 2.1 µM

inhibition at 10 µM (CDK-2 kinase): 90.9 ± 1.9%
IC50 (CDK-2 kinase): 0.205 ± 0.011 µM
inhibition at 10 µM (VEGFR2 kinase): 90.5 ± 2.1%
IC50 (VEGFR2 kinase): 0.55 ± 0.006 µM
Compound: CC1=NN(C(c2ccccc2)N2CCCCC2)C(=O)C1N=Nc1ccccc1 (stereo not drawn) [Compound 4a, 5-Methyl-2-(phenyl(piperidin-1-yl)methyl)-4-(phenyldiazenyl)-2,4-dihydro-3H -pyrazol-3-one]
IC50 (THLE2 cells): 27.3 ± 1.15 µM
IC50 (HepG2 cells [1]; 48 h): 4.43 ± 0.25 µM
IC50 (HepG2 cells [1]; Homo sapiens, HepG2, 48 h): 4.4 µM

Compound: CC1=NN(C(c2ccccc2)N2CCCCC2)C(=O)C1N=Nc1ccccc1[N+](=O)[O-] (stereo not drawn) [Compound 4b, 5-Methyl-4-((2-nitrophenyl)diazenyl)-2-(phenyl(piperidin-1-yl)methyl)-2,4-dihydro-3H-pyrazol-3-one]
IC50 (THLE2 cells): 72.4 ± 2.15 µM
IC50 (HepG2 cells [1]; 48 h): 9.34 ± 0.52 µM
IC50 (HepG2 cells [1]; Homo sapiens, HepG2, 48 h): 9.33 µM

Compound: CC1=NN(C(c2ccccc2)N2CCCCC2)C(=O)C1N=Nc1ccc(Cl)cc1 (stereo not drawn) [Compound 4c, 4-((4-Chlorophenyl)diazenyl)-5-methyl-2-(phenyl(piperidin-1-yl)methyl)-2,4-dihydro-3H-pyrazol-3-one]
IC50 (THLE2 cells): 34.7 ± 1.05 µM
IC50 (HepG2 cells [1]; Homo sapiens, HepG2, 48 h): 25.2 ± 1.41 µM

inhibition at 10 µM (CDK-2 kinase): 91 ± 2.1%
IC50 (CDK-2 kinase): 0.311 ± 0.011 µM
inhibition at 10 µM (VEGFR2 kinase): 91.7 ± 3.1%
IC50 (VEGFR2 kinase): 0.267 ± 0.001 µM
Compound: Cc1nn(C(Nc2ccccc2)c2ccccc2)c(O)c1N=Nc1ccccc1 (stereo not drawn) [Compound 5a, 3-Methyl-1-(phenyl(phenylamino)methyl)-4-(phenyldiazenyl)-1H-pyrazol-5-ol]
IC50 (THLE2 cells): 48.7 ± 2.05 µM
total apoptosis (overall apoptotic cell death) (HepG2 cells [2]; [4]): 38.32%
necrosis (HepG2 cells [2]; [5]): 4.63%
Apoptosis Late (HepG2 cells [2]; supplement lab report, HepG2): 11.55
Apoptosis Early (HepG2 cells [2]; supplement lab report, HepG2): 26.77
necrosis (HepG2 cells [2]; [6]): 4.63
Apoptosis Total (HepG2 cells [2]; supplement lab report, HepG2): 42.95
DNA content %G2/M (HepG2 cells [3]): 15.61%
DNA content %S (HepG2 cells [3]): 35.21%
DNA content %G0-G1 (HepG2 cells [3]): 49.18%
cell cycle phase of growth arrest (Comment) (HepG2 cells [3]; listed as s20): cell growth arrest@ G1
IC50 (HepG2 cells [1]; Homo sapiens, HepG2, 48 h): 3.46 ± 0.16 µM

Compound: Cc1nn(C(Nc2ccccc2[N+](=O)[O-])c2ccccc2)c(O)c1N=Nc1ccccc1 (stereo not drawn) [Compound 5b, 3-Methyl-1-((2-nitrophenylamino)(phenyl)methyl)-4-(phenyldiazenyl)-1H-pyrazol-5-ol]
IC50 (THLE2 cells): 65.2 ± 2.3 µM
IC50 (HepG2 cells [1]; 48 h): 17.3 ± 0.8 µM
IC50 (HepG2 cells [1]; Homo sapiens, HepG2, 48 h): 17.1 µM

Compound: Cc1nn(C(Nc2c(C)n(C)n(-c3ccccc3)c2=O)c2ccccc2)c(O)c1N=Nc1ccccc1 (stereo not drawn) [Compound 6a, 4-(((5-Hydroxy-3-methyl-4-(phenyldiazenyl)-1H-pyrazol-1-yl)(phenyl)methyl)amino)-1,5-dimethyl-2-phenyl-1,2-dihydro-3H-pyrazol-3-one]
IC50 (THLE2 cells): 75.3 ± 3.3 µM

inhibition at 10 µM (CDK-2 kinase): 88.7 ± 2.6%
IC50 (CDK-2 kinase): 0.458 ± 0.017 µM
inhibition at 10 µM (VEGFR2 kinase): 93.2 ± 2.9%
IC50 (VEGFR2 kinase): 0.2 ± 0.001 µM
Compound: Cc1nn(C(Nc2c(C)n(C)n(-c3ccccc3)c2=O)c2ccccc2)c(O)c1N=Nc1ccccc1[N+](=O)[O-] (stereo not drawn) [Compound 6b, 4-(((5-Hydroxy-3-methyl-4-((2-nitrophenyl)diazenyl)-1H-pyrazol-1-yl)(phenyl)methyl)amino)-1,5-dimethyl-2-phenyl-1,2-dihydro-3H-pyrazol-3-one]
IC50 (THLE2 cells): 60.2 ± 2.54 µM
total apoptosis (overall apoptotic cell death) (HepG2 cells [2]; [4]): 42.9%
necrosis (HepG2 cells [2]; [5]): 7.54%
Apoptosis Late (HepG2 cells [2]; supplement lab report, HepG2): 14.48
Apoptosis Early (HepG2 cells [2]; supplement lab report, HepG2): 29.17
necrosis (HepG2 cells [2]; [6]): 7.54
Apoptosis Total (HepG2 cells [2]; supplement lab report, HepG2): 51.19
cell cycle phase of growth arrest (Comment) (HepG2 cells [3]): S-phases; also recorded: S phase
DNA content %G2/M (HepG2 cells [3]): 12.49%
DNA content %S (HepG2 cells [3]): 41.33%
DNA content %G0-G1 (HepG2 cells [3]): 46.18%
cell cycle phase of growth arrest (Comment) (HepG2 cells [3]; listed as s31): cell growth arrest@ G1/S
IC50 (HepG2 cells [1]; Homo sapiens, HepG2, 48 h): 2.52 ± 0.12 µM

Compound: COc1ccc(OC)c(NC(=O)c2cc(-c3c[nH]c4ccccc34)n[nH]2)c1 [SI]
IC50 (HepG2 liver cancer cells): 0.6 µM

Compound: CNC(=O)c1cc(Oc2ccc(NC(=O)Nc3ccc(Cl)c(C(F)(F)F)c3)cc2)ccn1 [Sorafenib, reference compound]
IC50 (THLE2 cells): 17 ± 0.72 µM

Compound: COc1cccc2c1C(=O)c1c(O)c3c(c(O)c1C2=O)C[C@@](O)(C(=O)CO)C[C@@H]3O[C@H]1C[C@H](N)[C@H](O)[C@H](C)O1 [doxorubicin, reference compound]
IC50 (HepG2 cells [1]; Homo sapiens, HepG2, 48 h): 2.05 µM
